These results are taken from the supplement of paper PMC12494721.

Where a name gives a salt, the structure may show the parent alone.

What all share (conditions): incubation time: 27 h, anaerobic, 37 °C
Assay [1] has as its system Clostridium sporogenes DSM 1664. The assay is described as follows: growth (OD595) fold change vs plate DMSO controls (fold change (ratio)); higher = more growth.
Assay [2] has the same test system. The assay is described as follows: fold change of Tryptamine concentration vs plate DMSO controls (fold change (ratio)); higher = more amine produced.
The test system of assay [3] is Ruminococcus gnavus DSM 108212. The assay is described as follows: growth (OD595) fold change vs plate DMSO controls (fold change (ratio)); higher = more growth.
The test system of assay [4] is Ruminococcus gnavus DSM 108212. The assay is described as follows: fold change of Tryptamine concentration vs plate DMSO controls (fold change (ratio)); higher = more amine produced.
The test system of assay [5] is Ruminococcus gnavus DSM 108212. The assay is described as follows: fold change of 2-Phenylethylamine concentration vs plate DMSO controls (fold change (ratio)); higher = more amine produced.

For the compound `CO[C@H]1/C=C/O[C@@]2(C)Oc3c(C)c(O)c4c(O)c(c5c(nc6cc(C)ccn65)c4c3C2=O)NC(=O)/C(C)=C\C=C\[C@H](C)[C@H](O)[C@@H](C)[C@@H](O)[C@@H](C)[C@H](OC(C)=O)[C@@H]1C` [Rifaximin], the growth is 1.05 in assay [1] (0.6125 µM); 0.257 in assay [1] (1.25 µM); -0.0262 in assay [1] (2.5 µM); -0.0255 in assay [1] (5 µM); -0.0254 in assay [1] (10 µM); -0.0277 in assay [1] (20 µM). Also, the “fold change of Tryptamine concentration” value in assay [2] (0.6125 µM) amounted to 0.601; in assay [2] (1.25 µM), 0.0574; in assay [2] (2.5 µM), 0.03; in assay [2] (5 µM), 0.0292; in assay [2] (10 µM), 0.0294; in assay [2] (20 µM), 0.0294.

As for `COc1c(N2C[C@@H]3CCCN[C@@H]3C2)c(F)cc2c(=O)c(C(=O)O)cn(C3CC3)c12` [Moxifloxacin], the growth is 0.813 in assay [3] (0.6125 µM); 0.562 in assay [3] (1.25 µM); 0.528 in assay [3] (2.5 µM); 0.491 in assay [3] (5 µM); 0.279 in assay [3] (10 µM); 0.119 in assay [3] (20 µM). The “fold change of Tryptamine concentration” value was 2.33 in assay [4] (0.6125 µM); 2.83 in assay [4] (1.25 µM); 3.17 in assay [4] (2.5 µM); 3.27 in assay [4] (5 µM); 2 in assay [4] (10 µM); 0.511 in assay [4] (20 µM). The “fold change of 2-Phenylethylamine concentration” value in assay [5] (0.6125 µM) is 2.13; in assay [5] (1.25 µM), 2.4; in assay [5] (2.5 µM) it was 2.64; in assay [5] (5 µM), 2.66; in assay [5] (10 µM), 1.29; in assay [5] (20 µM) it was 0.274.

For `Cc1ncc([N+](=O)[O-])n1C` [Dimetridazole], the growth in assay [1] (0.6125 µM) was 1.15; in assay [1] (1.25 µM), 1.1; in assay [1] (2.5 µM), 0.842; in assay [1] (5 µM), 1.1; in assay [1] (10 µM), -0.0122; in assay [1] (20 µM) it was -0.0151. In addition, the “fold change of Tryptamine concentration” value in assay [2] (0.6125 µM) turned out to be 0.869; in assay [2] (1.25 µM) it was 0.772; in assay [2] (2.5 µM), 0.685; in assay [2] (5 µM), 0.184; in assay [2] (10 µM), 0.0282; in assay [2] (20 µM), 0.0226.

In the case of `Oc1c(Cl)cc(Cl)cc1Sc1cc(Cl)cc(Cl)c1O` [Bithionol], the growth was 1.23 in assay [1] (0.6125 µM); 1.2 in assay [1] (1.25 µM); 0.906 in assay [1] (2.5 µM); 0.716 in assay [1] (5 µM); 0.142 in assay [1] (10 µM); -0.0314 in assay [1] (20 µM). Further, the “fold change of Tryptamine concentration” value in assay [2] (0.6125 µM) came to 1.09; in assay [2] (1.25 µM), 1.06; in assay [2] (2.5 µM), 1.07; in assay [2] (5 µM), 0.891; in assay [2] (10 µM) it was 0.0764; in assay [2] (20 µM) it was 0.0165.

As for `C[C@@H](O)[C@H]1C(=O)N2C(C(=O)O)=C(S[C@@H]3CN[C@H](CNS(N)(=O)=O)C3)[C@H](C)[C@H]12` [Doripenem monohydrate], the growth in assay [3] (0.6125 µM) came out at 1.74; in assay [3] (1.25 µM) it was 0.893; in assay [3] (2.5 µM), 2.1; in assay [3] (5 µM) it was 0.381; in assay [3] (10 µM) it was 0.355; in assay [3] (20 µM), 0.36. Moreover, the “fold change of Tryptamine concentration” value in assay [4] (0.6125 µM) came to 0.35; in assay [4] (1.25 µM), 0.206; in assay [4] (2.5 µM) it was 0.16; in assay [4] (5 µM), 0.15; in assay [4] (10 µM), 0.121; in assay [4] (20 µM), 0.128. Besides, the “fold change of 2-Phenylethylamine concentration” value in assay [5] (0.6125 µM) came to 0.242; in assay [5] (1.25 µM), 0.158; in assay [5] (2.5 µM) it was 0.118; in assay [5] (5 µM), 0.119; in assay [5] (10 µM) it was 0.0974; in assay [5] (20 µM), 0.111.

Consider `Cn1nnnc1SCC1=C(C(=O)O)N2C(=O)[C@@H](NC(=O)[C@H](O)c3ccccc3)[C@H]2SC1` [Cefamandole sodium salt], for which the growth in assay [3] (0.6125 µM) is 1.26; in assay [3] (1.25 µM), 1.29; in assay [3] (2.5 µM) it was 1.53; in assay [3] (5 µM), 0.889; in assay [3] (10 µM) it was 0.479; in assay [3] (20 µM), 0.481. Also, the “fold change of Tryptamine concentration” value in assay [4] (0.6125 µM) was determined as 0.992; in assay [4] (1.25 µM), 0.847; in assay [4] (2.5 µM) it was 1.2; in assay [4] (5 µM), 0.675; in assay [4] (10 µM), 0.357; in assay [4] (20 µM), 0.263. The “fold change of 2-Phenylethylamine concentration” value worked out at 0.85 in assay [5] (0.6125 µM); 0.767 in assay [5] (1.25 µM); 0.996 in assay [5] (2.5 µM); 0.492 in assay [5] (5 µM); 0.244 in assay [5] (10 µM); 0.178 in assay [5] (20 µM).

For `O=C(N[C@H](CO)[C@H](O)c1ccc([N+](=O)[O-])cc1)C(Cl)Cl` [Chloramphenicol], the growth in assay [3] (0.6125 µM) was 0.858; in assay [3] (1.25 µM) it was 0.8; in assay [3] (2.5 µM), 0.814; in assay [3] (5 µM), 0.765; in assay [3] (10 µM), 0.647; in assay [3] (20 µM), 0.204. For the same compound, the “fold change of Tryptamine concentration” value in assay [4] (0.6125 µM) is 1.05; in assay [4] (1.25 µM), 0.822; in assay [4] (2.5 µM), 0.595; in assay [4] (5 µM), 0.577; in assay [4] (10 µM) it was 0.506; in assay [4] (20 µM), 0.175. Also, the “fold change of 2-Phenylethylamine concentration” value turned out to be 1 in assay [5] (0.6125 µM); 0.839 in assay [5] (1.25 µM); 0.648 in assay [5] (2.5 µM); 0.601 in assay [5] (5 µM); 0.477 in assay [5] (10 µM); 0.174 in assay [5] (20 µM).

In the case of `OC[C@H]1O[C@@H](n2cnc3cncnc32)[C@H](O)[C@@H]1O` [Nebularine], the growth in assay [3] (0.6125 µM) stood at 0.842; in assay [3] (1.25 µM), 0.629; in assay [3] (2.5 µM), 0.339; in assay [3] (5 µM), 0.336; in assay [3] (10 µM), 0.336; in assay [3] (20 µM), 0.333. Also, the “fold change of Tryptamine concentration” value in assay [4] (0.6125 µM) turned out to be 0.84; in assay [4] (1.25 µM), 0.755; in assay [4] (2.5 µM) it was 0.503; in assay [4] (5 µM), 0.464; in assay [4] (10 µM), 0.552; in assay [4] (20 µM), 0.585. The “fold change of 2-Phenylethylamine concentration” value in assay [5] (0.6125 µM) is 0.725; in assay [5] (1.25 µM), 0.65; in assay [5] (2.5 µM), 0.367; in assay [5] (5 µM) it was 0.321; in assay [5] (10 µM), 0.413; in assay [5] (20 µM), 0.434.
